Laboratory results from patent US5504106A, “Phenyl amidine alkanoic acids and lactones useful as platelet aggregation inhibitors” (G. D. Searle & Co., priority 1994, dated 1996).
Values joined by “and” are separate entries in the source; they are usually repeats but may differ in a detail not shown here. Equal entries are not always repeated. Structures can show the parent of a compound that is named as a salt.

Test system: Dog PRP
Assay: In-Vitro Platelet Aggregation in PRP (ADP-induced)
Type: cell-based
Settings: dog platelet-rich plasma, ADP-induced aggregation (50 μm final concentration), 37° C.; for Dog PRP % Inhibition: Test Concentration 1 × 10^-5; for IC50: 1 minute preincubation, linear regression of dose response curve
Protocol: Healthy male or female dogs were fasted for 8 hours prior to drawing blood; then 30 ml whole blood was collected using a butterfly needle and 30 cc plastic syringe with 3 ml of 0.129M buffered sodium citrate (3.8%). The syringe was rotated carefully as blood was drawn to mix the citrate. Platelet-rich plasma (PRP) was prepared by centrifugation at 975× g for 3.17 minutes at room temperature, allowing the centrifuge to coast to a stop without braking. The PRP was removed from the blood with a plastic pipette and placed in a plastic capped, 50 ml Corning conical sterile centrifuge tube which was held at room temperature. Platelet poor plasma (PPP) was prepared by centrifuging the remaining blood at 2000× g for 15 minutes at room temperature allowing the centrifuge to coast to a stop without braking. The PRP was adjusted with PPP to a count of 2-3×10^8 platelets per ml. 400 μl of the PRP preparation and 50 μl of the compound to be tested as prepared below or saline were preincubated for 1 minute at 37° C. in a BioData aggregometer (BioData, Horsham, Pa.). 50 μl of adenosine 5'diphosphate (ADP) (50 μm final concentration) was added to the cuvettes and the aggregation was monitored for 1 minute. The test compounds were prepared by the following procedure. The compound was dissolved in 100% ethanol at a concentration of 10^-2 M. It was vortexed for 30 seconds followed by the addition of 1.1 equivalents of 1N NaOH. This solution was mixed for 30 minutes at room temperature. After the 30 minutes of mixing, the compound solution was brought to a working concentration of 10^-3 M with double distilled water. All compounds are tested in duplicate. Results are calculated as follows:
Percent of control= (maximal OD minus initial OD of compound) divided by (maximal OD minus initial OD of control saline)!×100. The % inhibition=100-(percent of control).
The assay results for the representative compounds of the present invention are set forth in Table A. Also in Table A, two readings given in a single box indicate that two trials, rather than a single trial, were run for that particular compound in that particular assay.

[1] = Canis lupus familiaris, Platelet

`N=C(N)c1ccc(CCCCC2CCCC(=O)O2)cc1` (racemic) [6-4-(4-(aminoiminomethyl)phenyl)butyl)tetrahydro-2H -pyran-2-one] was tested, and the “Dog PRP % Inhibition” value was 29% and 38%.
`COC(=O)CC1CC(=O)OC(CCCCc2ccc(C(=N)N)cc2)C1` (racemic) [(±)-cis-methyl 2-4-4-(aminoiminomethyl)phenyl!butyl!tetrahydro-6-oxo-2H-pyran-4-acetate] was tested, and the IC50 was 4 µM and the “Dog PRP % Inhibition” value was 100%.
For `N=C(N)c1ccc(CCCC[C@@H]2C[C@H](c3cccnc3)CC(=O)O2)cc1` (relative stereo) [(±)-cis-6-4-4-(Aminoiminomethyl)phenyl)butyl!tetrahydro-4-(3-pyridinyl)-2H-pyran-2-one, ditrifluoroacetate], the IC50 [1] was 0.16 µM and the “Dog PRP % Inhibition” value was 100%.
In the case of `C[C@@H]1CC(=O)O[C@H](CCCCc2ccc(C(=N)N)cc2)C1` (relative stereo) [(±)-cis-6-4-4-(Aminoiminomethyl)phenyl)butyl!tetrahydro-4-methyl-2H-pyran-2-one, trifluoroacetate], the IC50 [1] is reported as 7.1 µM and the “Dog PRP % Inhibition” value is reported as 74%.
`N=C(N)c1ccc(CCCC[C@@H]2C[C@H](c3ccccc3)CC(=O)O2)cc1` (relative stereo) [(±)-cis-6-4-4-(Aminoiminomethyl)phenyl)butyl!tetrahydro-4-phenyl-2H-pyran-2-one, trifluoroacetate] was tested, and the IC50 [1] was 4.2 µM and the “Dog PRP % Inhibition” value was 100%.
For `N=C(N)c1ccc(CCCC[C@@H]2C[C@H](CS(=O)(=O)c3ccccc3)CC(=O)O2)cc1` (relative stereo) [(±)-cis-6-4-4-(aminoiminomethyl)phenyl!butyl!tetrahydro-4-(phenylsulfonyl)methyl!-2H-pyran-2-one, trifluoroacetate], the IC50 [1] was 2.6 µM and the “Dog PRP % Inhibition” value was 100%.
In the case of `N=C(N)c1ccc(CCCC[C@@H]2C[C@H](O)CC(=O)O2)cc1` (relative stereo) [(±)-cis-6-4-4-Aminoiminomethyl)phenyl!butyl!tetrahydro-4-hydroxy-2H-pyran-2-one, trifluoroacetate], the IC50 [1] is reported as 5.3 µM, the IC50 is reported as 4.1 µM and the “Dog PRP % Inhibition” value is reported as 89% and 96%.
In the case of `C=C[C@@H]1CC(=O)O[C@H](CCCCc2ccc(C(=N)N)cc2)C1` (relative stereo) [(±)-cis-6-4-(4-(Aminoiminomethyl)phenyl)butyl!-4-ethenyl-tetrahydro-2H-pyran-2-one, trifluoroacetate], the IC50 [1] is reported as 2.6 µM and the “Dog PRP % Inhibition” value is reported as 100%.
With `N=C(N)c1ccc(CCCC[C@@H]2C[C@@H](c3ccccc3)CC(=O)O2)cc1` (relative stereo) [(±)-trans-6-4-4-(Aminoimino)phenyl)butyl!tetrahydro-4-phenyl-2H-pyran-2-one, trifluoroacetate] the “Dog PRP % Inhibition” value was 7%.
`N=C(N)c1ccc(CCCC[C@@H]2C[C@@H](O)CC(=O)O2)cc1` (relative stereo) [(±)-trans-6-4-4-(Aminoiminomethyl)phenyl!butyl!tetrahydro-4-hydroxy-2H-pyran-2-one, trifluoroacetate] was tested, and the “Dog PRP % Inhibition” value was 36%.
`N=C(N)c1ccc(NC(=O)CC[C@@H]2C[C@H](O)CC(=O)O2)cc1` [N-4-(aminoiminomethyl)phenyl!3,4,5,6-tetrahydro-6-oxo-4S-hydroxy-2H-pyran-2R-propanamide, trifluoroacetate] showed an IC50 [1] of 0.35 µM.
In the case of `N=C(N)c1ccc(NC(=O)CCC2CCCC(=O)O2)cc1` (centres unmarked) [N-4-(aminoiminomethyl)phenyl!tetrahydro-6-oxo-2H-pyran-2-propanamide, trifluoroacetate], the IC50 [1] is reported as 2.9 µM.
